Read-outs that look alike come from different tables or passages of the source.
Assays:
[1] = test system: vitamin B6 levels in human plasma and cells; test: Applicant's investigations of enprofylline and vitamin B6 levels
[2] = test system: serotonin; type: in vivo, humans
Procedure: Studies on humans: The study was approved by the University Human Ethics Committee. Seven apparently healthy, young male volunteers aged 23 ± 2.4 ( ± SD) years gave informed consent to participate in the study. Each participant received theophylline (slow release) at a dosage of approximately 5 mg/kg body weight/day for one week. Thereafter, the theophylline dosage was increased to maintain plasma theophylline levels of approx. 10 mg/liter for 15 weeks. During the last week of the study (16th week) the participants were supplemented with 10 mg of vitamin B6 (B6) as herein described per day.
Clin. Chem. 35: 43-47. Serotonin concentrations were subsequently determined by HPLC according to the method of Tsuchiya et al.)

[3] = test system: glutamate pyruvate transaminase (GPT) in red blood cells; type: in vivo, human
Procedure: The inventor carried out clinical tests in human volunteers to investigate the effect of theophylline on glutamate pyruvate transaminase (GPT) in red blood cells, which plays an important biochemical role. […] When theophylline was administered there took place a dramatic drop in both PLP due to the inactivation of the kinase, and after approximately 28 days, also of RBC GPT levels as newly formed RBC (produced in the bone marrow under conditions of reduced PLP availability) begin to appear in the circulation.
As predicted, the body did indeed try to compensate for this by forming progressively more kinase. […] Thus the increased levels of kinase were unable to reverse the theophylline induced PLP deficiency and the concommittant GPT deficiency.

[4] = target: T1, PL-kinase (Homo sapiens, UniProt O00764); test: Enzyme kinetic studies of PL-kinase inhibition; type: biochemical
T1 sequence (O00764 1-312): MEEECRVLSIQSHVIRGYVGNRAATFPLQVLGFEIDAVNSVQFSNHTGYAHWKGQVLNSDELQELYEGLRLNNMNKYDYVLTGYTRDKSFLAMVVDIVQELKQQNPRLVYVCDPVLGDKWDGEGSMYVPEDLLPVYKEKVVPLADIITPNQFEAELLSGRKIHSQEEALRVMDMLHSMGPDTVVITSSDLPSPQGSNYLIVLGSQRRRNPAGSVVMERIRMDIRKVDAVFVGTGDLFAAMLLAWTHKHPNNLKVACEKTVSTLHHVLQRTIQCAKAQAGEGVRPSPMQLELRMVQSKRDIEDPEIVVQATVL

[5] = test system: B6 dependent intracellular pathways; test: Very low doses of PN in humans; type: in vivo; conditions: 0,02 mg/kg in humans

## CCCn1c(=O)[nH]c(=O)c2[nH]cnc21 [enprofylline, 3-propylxanthine]
[1]
  effect on vitamin B6 levels in human plasma and cells: adverse effect

## Cc1ncc(CO)c(C=O)c1O [PL, pyridoxal]
In vivo
  half-life: 30 to 40 min

## Cn1c(=O)c2[nH]cnc2n(C)c1=O [theophylline]
[2]; 112 days of theophylline treatment, preceded by 1 week of vitamin B6 supplementation (10 mg/day), mean (SD)
  Urinary serotonin excretion, Basal: 0.562 (0.127) umol/24 h
[2]; human, in vivo
  Urinary serotonin excretion after tryptophan loading: the observed changes were not statistcially significant
[3]; human, in vivo
  PLP: dramatic drop
  PLP content and GPT content: remained depressed for as long as 100 days
[4]
  type of PL-kinase inhibition: non-competitive

## Cc1ncc(CO)c(CO)c1O.Cl [vitamin B6]
[2]; one week of B6 supplementation (10 mg per day) during theophylline therapy
  urinary serotonin excretion: returned urinary serotonin excretion to pre-treatment levels
[3]; low dosage supplementation with Vitamin B6
  PLP deficiency induced by the xanthine bronchodilator: almost immediately reversed

## Cc1ncc(CO)c(CO)c1O [PN, pyridoxine]
[5]
  extracellular PL and PLP levels: without affecting extracellular PL and PLP levels materially
  influence on B6 dependent intracellular pathways: profound influence
plasma
  half-life: 12 min
